Measurements taken from PMC8960621, “Solution speciation and human serum protein binding of indium(III) complexes of 8-hydroxyquinoline, deferiprone and maltol” (Journal of Biological Inorganic Chemistry, 2022).

What was measured:
[1] = system: HSA and Tf; test: Complex - HSA - Tf ternary systems (three-dimensional fluorescence and UV-vis); assay type: binding, human; settings: pH 7.40; for metal ion Tf bound: 10 μM complex, HSA 5.2 equiv., Tf 0.32 equiv.; for dissociation of the complex: 212 μM HSA and 12.8 μM Tf (ratio 1:21.2:1.28)
Procedure: The reliability of UV–vis and fluorescence spectroscopic techniques in the characterization of the mode of interaction of In(III) complexes with HSA and (apo)Tf was proven in the former sections. Therefore, as a continuation three-dimensional fluorescence and UV–vis spectra were recorded for InQ3 and GaQ3 in the presence of both HSA and Tf (Figs. 7 and S7).
In these experiments, the applied HSA-to-Tf ratio corresponds to their physiological ratio in blood serum (630:38). Figure 8 depicts the intensity changes of the ternary system (complex and both proteins) for InQ3 at λEX = 367 nm and λEM = 530 nm in comparison to the respective binary systems (complex and only one type of protein). Apparently, albumin binding of the complex is indeed achieved in the ternary system, although to a lower extent compared to the InQ3 – HSA binary system, and the Tf binding of In(III) becomes more significant at higher protein concentrations. Consequently, the measured intensity reduces parallel with the decreasing (free and albumin bound) InQ3 concentration. […] Based on these spectra, InQ3 and GaQ3 are at least partly HSA-bound. However, minor dissociation of the complexes is evidenced by the UV–vis spectra (Fig. S7) even at this ratio that is more advanced for InQ3 than for GaQ3 (ca. 30% and 10% metal ion is Tf bound, respectively). The differences between the two complexes become more pronounced by getting closer to the physiologically relevant protein concentrations. In the presence of 212 μM HSA and 12.8 μM Tf (ratio: 1:21.2:1.28), the fluorescence of InQ3 is diminished, as most of the complex decomposes and In(III) is bound to Tf. […] To mimic the blood protein concentrations, three-times higher values would be needed; however, under that conditions fluorometric detection becomes inadequate due to the too high absorbance and light scattering of the samples.
Three-dimensional spectra were recorded for ternary systems containing InQ3 or GaQ3, HSA and Tf in the wavelength range λEX = 250 – 450 nm and λEM = 300 – 700 nm. All three-dimensional spectra were corrected by residual fluorescence of the proteins, inner filter effect and self-absorbance.

[2] = Fraction of non-dissociated tris-ligand complex at 10 μM, pH 7.40 (UV-vis and speciation calculation); assay type: physicochemical; settings: pH 7.4, constants determined at 0.20 M KCl
From the text: As a first step, interaction of the tris-ligand In(III) complexes with various LMM blood serum components was investigated and compared to that of GaQ3 studied formerly in our research group. The LMM compounds are considered to be more mobile than the high molecular mass components (HMM) such as proteins, and generally their reaction is characterized by faster kinetics. The role of serum compounds might have importance on the distribution of the In(III) complexes since they may be responsible for (partial) displacement of the originally coordinated ligand and they can also form mixed-ligand complexes. […] All the measurements in this work were performed at 25 °C as most of the stability constants used for the modeling calculations published in the literature were determined at this temperature. UV–vis spectra recorded for the tris-ligand complexes at 10 μM concentration (see Fig. S1a for InQ3) in this buffer show 94%, 90% and < 20% non-dissociated InQ3, InD3 and InM3, respectively, which corresponds well to the fractions obtained using the stability constants determined at 0.20 M KCl: 90% (InQ3), 86% (InD3) and 9% InM3 and 6% InM^2+. […]
For the preparation of stock solutions and samples, Milli-Q water was used. Exact concentration of ligand stock solutions was determined via pH-potentiometric titrations (vide infra). […]

[3] = molecular target: T1, apo-transferrin (apoTf) (Homo sapiens, UniProt P02787); test: Kinetics of the reaction with apoTf followed by UV-vis spectrophotometry; assay type: binding; settings: pH 7.40 (InCl3: 2 equiv.)
T1 construct: purchased Sigma-Aldrich T2036
T1 sequence (P02787 20-698): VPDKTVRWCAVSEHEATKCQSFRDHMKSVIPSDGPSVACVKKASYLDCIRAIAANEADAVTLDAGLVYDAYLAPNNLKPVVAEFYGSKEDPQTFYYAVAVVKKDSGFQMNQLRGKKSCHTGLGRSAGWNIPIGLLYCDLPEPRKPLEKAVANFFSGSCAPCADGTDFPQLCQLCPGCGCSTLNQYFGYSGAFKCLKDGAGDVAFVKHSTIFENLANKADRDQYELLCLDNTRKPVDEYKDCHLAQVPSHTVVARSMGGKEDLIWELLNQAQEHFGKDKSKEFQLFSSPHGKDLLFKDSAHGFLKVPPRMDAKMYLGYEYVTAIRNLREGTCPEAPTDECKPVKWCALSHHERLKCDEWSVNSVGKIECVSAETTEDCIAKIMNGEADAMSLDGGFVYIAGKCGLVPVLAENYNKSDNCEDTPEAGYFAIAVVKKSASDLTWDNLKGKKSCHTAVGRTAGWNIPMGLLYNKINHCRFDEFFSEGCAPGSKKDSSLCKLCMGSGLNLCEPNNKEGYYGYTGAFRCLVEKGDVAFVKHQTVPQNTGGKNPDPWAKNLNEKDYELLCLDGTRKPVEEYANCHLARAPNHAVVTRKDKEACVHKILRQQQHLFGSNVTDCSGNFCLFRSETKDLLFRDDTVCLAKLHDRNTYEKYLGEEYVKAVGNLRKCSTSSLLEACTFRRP
Procedure: Firstly, the kinetics of the reaction between apoTf and InCl3 and the complexes was studied by UV–vis spectrophotometry. The reaction of 2 equiv. […] At the same time Harris et al. have observed slow equilibration with InCl3, that was accelerated (to 6 h) in the presence of NTA [18]. In the case of InQ3 and InD3, the progress of apoTf binding could be followed through the ligand bands of the complexes. […] The Ga(III)-analogue GaQ3 interacted within 1 h with apoTf under similar conditions.
For (apo)Tf containing samples, complex concentrations were 20 μM and 0–2.5 equiv. protein was added. Reference spectra for the complexes, ligands and protein were recorded as well. Samples prepared with blood serum contained three-fold diluted serum and 10 μM metal complexes. UV–vis spectra presented in this paper for complexes InD3 or InQ3 are subtracted by the spectrum of reference protein (HSA (apo)Tf or serum) sample in all cases in favour of the better interpretation of the results.

SMILES	metal ion Tf bound [1]	dissociation of the complex [1]	fraction of tris-ligand complex obtained using the stability constants [2]	time to reach equilibrium in the reaction with apoTf [3]
[Ga+3].[O-]c1cccc2cccnc12.[O-]c1cccc2cccnc12.[O-]c1cccc2cccnc12 [GaQ3, Tris(8-Quinolinolato)gallium(III), reference compound]	~10%	25%	–	–
Cc1c([O-])c(=O)ccn1C.Cc1c([O-])c(=O)ccn1C.Cc1c([O-])c(=O)ccn1C.[In+3] [InD3]	–	–	86%	~0.5 h
[In+3].[O-]c1cccc2cccnc12.[O-]c1cccc2cccnc12.[O-]c1cccc2cccnc12 [InQ3, Tris(8-Quinolinolato)indium(III)]	ca. 30%	practically completely dissociated	90%	3 to 4 h
